Values after ≈ are worked out from the molar mass of the structure shown. Like-named read-outs stand apart in the source and are kept apart here.
Tests used:
[1] = tested on: MRSA 252; assay: MIC, broth micro-dilution; type: cell-based, Staphylococcus aureus; details: Staphylococcus aureus, read-out: MIC
Protocol: (§1) E. coli DH5α, P. aeruginosa PA01 and the 53 S. aureus strains were recovered from frozen (−80° C.) glycerol (15% v/v) stocks on Lysogeny agar (LA)—Gram negative and trypticase soy agar (TSA)—plates at 37° C. for 24 hours. Single colonies were placed in either 3 mL Lysogeny broth (LB)—Gram negative or trypticase soy broth (TSB)—Gram positive and incubated at 37° C., 250 rpm for 18 hours.
(§2) Antibiotic MIC's were determined by a broth micro-dilution method according to Clinical Standard Laboratory Institute (CSLI) Guidelines (2017). Briefly, 96-well microplates, each containing 195 μL of the 1:2 dilution antibiotic in TSB, were inoculated with 5 μL of overnight cultured bacteria, diluted to give a starting bacterial concentration of 5×10^5 CFU/mL. The optical density of each well inoculated was recorded every 12 minutes over an 18 hour period at 37° C. The data from this was plotted in OriginPro8 (OriginLab) and sigmoidal curves fitted using the dose response function. Fitted values for each curve were used to calculate the MIC.

[2] = tested on: MSSA 476; assay: MIC, broth micro-dilution; type: cell-based, Staphylococcus aureus
Protocol: as §1, §2

[3] = tested on: MRSA 252; assay: Disc diffusion (Kirby-Bauer), zone of inhibition; type: cell-based, Staphylococcus aureus; details: Staphylococcus aureus, 500 μg/mL, '/' = no zone, read-out: Zone of inhibition
Protocol: as §1
(§3) The antibiotic activity was determined using a Kirby-Bauer method according to Clinical Standard Laboratory Institute (CSLI) Guidelines (2017). Briefly, 180 μL of a 1 in 200 dilution (in LB or TSB) of overnight cultures of selected Gram negative and Gram positive bacteria were applied to an agar plate containing the solid growth medium, Mueller-Hinton agar (MHA). Sterile discs, inoculated with 50 μL of antibiotic, were first added to the agar plate before the plates were incubated for 24 hours at 37° C. Following incubation, the zone of inhibition (if it existed) was recorded.

[4] = tested on: MSSA 476; assay: Disc diffusion (Kirby-Bauer), zone of inhibition; type: cell-based, Staphylococcus aureus; details: 500 μg/mL, '/' = no zone; for zone of inhibition at 500 µg/mL: Staphylococcus aureus, read-out: Zone of inhibition
Protocol: as §1, §3

[5] = tested on: Staphylococcus aureus 15981; assay: Disc diffusion (Kirby-Bauer), zone of inhibition; type: cell-based; details: Staphylococcus aureus 15981, 500 μg/mL, '/' = no zone; for zone of inhibition at 500 µg/mL: read-out: Zone of inhibition
Protocol: as §1, §3

[6] = tested on: Pseudomonas aeruginosa PA01; assay: Disc diffusion (Kirby-Bauer), zone of inhibition; type: cell-based; details: 500 μg/mL, '/' = no zone
Protocol: as §1, §3

[7] = tested on: MRSA 252, MSSA 476, S. aureus 15981, P. aeruginosa PA01 and E. coli DH5α; assay: Disc diffusion primary screening, five strains (statements in words); type: cell-based; details: 500 μg/mL
Protocol: As such, the minimum inhibition concentration (MICs) of biologically active compounds were further assessed using the broth dilution method against the S. aureus strains; MRSA 252 and MSSA 476 (Table 1). The results of both assays enabled key structural elements and functional groups required for the compounds to retain their antibiotic activity to be identified.
as §3

[8] = tested on: Escherichia coli DH5α; assay: Disc diffusion (Kirby-Bauer), zone of inhibition; type: cell-based; details: Escherichia coli DH5α; 500 μg/mL; '/' = no zone; read-out: Zone of inhibition
Protocol: as §1, §3

[9] = tested on: C. albicans ATCC 90028; assay: Anti-fungal MIC (CO-ADD); type: cell-based; details: Candida albicans, ATCC90028, read-out: MIC
Protocol: (§4) Fungal strains were cultured for 3 days on Yeast Extract-Peptone Dextrose (YPD) agar at 30° C. A yeast suspension of 1×10^6 to 5×10^6 CFU/mL (as determined by OD530) was prepared from five colonies. […] All plates were covered and incubated at 35° C. for 36 hours without shaking. […] The absorbance was measured using a Biotek Multiflo Synergy HTX plate reader. In both cases, the percentage of growth inhibition was calculated for each well, using the negative control (media only) and positive control (fungi without inhibitors) on the same plate. […] Due to a higher variance in growth and inhibition, a lower threshold was applied to the data for C. neoformans. In addition, the maximal percentage of growth inhibition is reported as DMax, indicating any compounds with marginal activity.

[10] = tested on: C. deuterogattii ATCC 32609; assay: Anti-fungal MIC (CO-ADD); type: cell-based; details: read-out: MIC
Protocol: as §4

[11] = tested on: C. glabrata ATCC 90030; assay: Anti-fungal MIC (CO-ADD); type: cell-based; details: Nakaseomyces glabratus, ATCC90030, read-out: MIC
Protocol: as §4

[12] = tested on: C. neoformans H99; ATCC 208821; assay: Anti-fungal MIC (CO-ADD); type: cell-based; details: Cryptococcus neoformans, ATCC208821, read-out: MIC
Protocol: as §4

[13] = tested on: C. tropicalis ATCC 450; assay: Anti-fungal MIC (CO-ADD); type: cell-based; details: Candida tropicalis, ATCC450, read-out: MIC
Protocol: as §4

[14] = tested on: C. tropicalis ATCC 750; assay: Anti-fungal MIC (CO-ADD); type: cell-based; details: Candida tropicalis, ATCC750, read-out: MIC
Protocol: as §4

[15] = Staphylococcus aureus, MSSA, read-out: MIC

| Compound | MIC [1] [µg/mL] | MIC [2, 15] [µg/mL] | zone of inhibition at 500 µg/mL [3] [mm] | zone of inhibition at 500 µg/mL [4] [mm] | zone of inhibition at 500 µg/mL [5] [mm] | zone of inhibition at 500 µg/mL [6] [mm] | further results |
| --- | --- | --- | --- | --- | --- | --- | --- |
| [C-]#[N+]CCc1ccc(O)cc1 [Compound 4, 4-(2-Isocyanoethyl)phenol] | – | – | – | – | – | – | antibiotic activity in disc diffusion assays (in words) [7]: complete loss of activity against all five strains |
| [C-]#[N+]c1ccc(O)cc1 [Compound 5, 4-Isocyanophenol] | 26 (≈ 218 µM) | 23 (≈ 193 µM) | 26 | 30 | 16 | 26 | zone of inhibition at 500 µg/mL [8]: 18 mm |
| [C-]#[N+]C=Cc1ccc(NC(=O)OC(C)(C)C)cc1 [Compound 23, Tert-butyl(4-(isocyanovinyl)phenyl)carbamate] | 35 (≈ 143 µM) | 164 (≈ 671 µM) | 18 | 20 | 14 | 14 | zone of inhibition at 500 µg/mL [8]: 14 mm |
| [C-]#[N+]C=C(C)c1ccc(NS(C)(=O)=O)cc1 [Compound 24, N-(4-(1-Isocyanoprop-1-en-2-yl)phenyl)methanesulfonamie] | 152 (≈ 643 µM) | 291 (≈ 1230 µM) | 16 | 22 | 18 | – | zone of inhibition at 500 µg/mL [8]: 14 mm |
| [C-]#[N+]/C=C/c1cn(C(C)C)c2ccccc12 [Compound 29] | 63 (≈ 300 µM) | 90 (≈ 428 µM) | 22 | 16 | 16 | 12 | – |
| [C-]#[N+]C=Cc1c[nH]c2cccc(Br)c12 [Compound 30, 4-Bromo-3-(2-isocyanovinyl)-1H-indole] | 214 (≈ 866 µM) | 350 (≈ 1420 µM) | 14 | 12 | 12 | – | – |
| [C-]#[N+]C=Cc1c[nH]c2cccc(Br)c12 [Compound 31, 4-Bromo-3-(2-isocyanovinyl)-1H-indole] | – | – | – | – | – | – | MIC [2]: 361 µg/mL (≈ 1460 µM); Zone of inhibition [4]: 12 mm; Zone of inhibition [5]: 12 mm |
| [C-]#[N+]/C=C/c1ccc(NC(C)=O)cc1-c1ccccc1 [Compound 43, (E)-N-(6-(2-Isocyanovinyl)-(1,1-biphenyl)-3-yl)acetamide] | 32 (≈ 122 µM) | 26 (≈ 99.1 µM) | 22 | 18 | 18 | – | – |
| [C-]#[N+]/C=C/c1ccc(NC(C)=O)cc1/C=C/c1ccncc1 [Compound 44, N-(4-((E)-2-Isocyanovinyl)-3-((E)-2-(pyridin-4-yl)vinyl)phenyl)acetamide] | 35 (≈ 121 µM) | 46 (≈ 159 µM) | 28 | 28 | 30 | 26 | antibiotic activity in disc diffusion assays (in words) [7]: antibiotic activity against four of the strains |

More lines, main results first:

| MIC [1] [µg/mL] | MIC [2, 15] [µg/mL] | Compound | zone of inhibition at 500 µg/mL [3] [mm] | zone of inhibition at 500 µg/mL [4] [mm] | zone of inhibition at 500 µg/mL [5] [mm] | zone of inhibition at 500 µg/mL [6] [mm] | further results |
| --- | --- | --- | --- | --- | --- | --- | --- |
| 117 | 210 | [C-]#[N+]C=Cc1cc(OC)ccc1OC (mixture of isomers) [Compound 18, (E/Z)-2-(Isocyanovinyl)-1,4-dimethoxybenzene] | 14 | 26 | 20 | – | – |
| 250 (≈ 1720 µM) | 350 (≈ 2410 µM) | [C-]#[N+]/C=C/c1ccccc1O (single isomer, unassigned) [Compound 11, 2-(2-isocyanovinyl)phenol] | 18 | 20 | 14 | 12 | – |
| 137 (≈ 944 µM) | 300 (≈ 2070 µM) | [C-]#[N+]C=Cc1cccc(O)c1 [Compound 10, 3-(2-Isocyanovinyl)phenol] | 20 | 16 | 18 | – | – |
| 123 (≈ 702 µM) | 187 (≈ 1070 µM) | [C-]#[N+]/C=C/c1cc(OC)ccc1O [Compound 12, (E)-2-(2-Isocyanovinyl)-4-methoxyphenol] | 16 | 14 | 16 | – | – |
| 185 (≈ 826 µM) | 200 (≈ 893 µM) | [C-]#[N+]C=Cc1ccc(O)cc1Br [Compound 15, 3-Bromo-4-(2-isocyanovinyl)phenol] | 20 | 22 | 24 | – | MIC [9]: 8 µg/mL; MIC [10]: 4 µg/mL; MIC [11]: 32 µg/mL; MIC [12]: 8 µg/mL; MIC [13]: 4 µg/mL; MIC [14]: 16 µg/mL |
| 116 (≈ 720 µM) | 400 (≈ 2480 µM) | [C-]#[N+]C=Cc1ccc(O)c(O)c1 [Compound 16, 4-(2-Isocyanovinyl)benzene-1,2-diol] | 22 | 22 | 24 | 18 | – |
| 157 (≈ 518 µM) | 176 (≈ 581 µM) | [C-]#[N+]C=Cc1cc(Br)c(O)c(Br)c1 [Compound 17, 2,6-Dibromo-4-(2-isocyanovinyl)phenol] | 18 | 18 | 16 | – | – |
| 56 (≈ 285 µM) | 144 (≈ 734 µM) | [C-]#[N+]C=Cc1cn(CC)c2ccccc12 [Compound 28] | 26 | 22 | 22 | 20 | – |
| 105 (≈ 425 µM) | 120 (≈ 485 µM) | [C-]#[N+]/C=C/c1cc(/C=C/c2ccccc2)ccc1O [Compound 37] | 22 | 24 | 22 | – | antibiotic activity in disc diffusion assays (in words) [7]: retained antibiotic activity |
